Measured values: article PMC8694143 (Microbiology Spectrum, 2021)
Residues, ends and D or L forms follow the SMILES beside them. No end group written: not given here. *: point of attachment. For = O=C*

How the values were obtained:
[1] = tested on: MRSA ATCC BAA-1683; assay: MIC determination in broth; format: cell-based, Staphylococcus aureus; details: cation-adjusted MH broth, 37°C, 16 h
Outline: (§1)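 Peptides from the initial screen are tested as 2-fold dilution series against an inoculum of about 10^5 CFU/mL in cation-adjusted Mueller-Hinton medium, incubated at 37°C without agitation.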

[2] = tested on: S. aureus ATCC 29213; assay: MIC determination in broth; format: cell-based, Staphylococcus aureus; details: cation-adjusted MH broth, 37°C, 16 h
Outline: as §1

[3] = tested on: MRSA ATCC BAA-44; assay: MIC determination in broth; format: cell-based, Staphylococcus aureus; details: cation-adjusted MH broth, 37°C, 16 h
Outline: as §1

[4] = tested on: MRSA ATCC BAA-42; assay: MIC determination in broth; format: cell-based, Staphylococcus aureus; details: cation-adjusted MH broth, 37°C, 16 h
Outline: as §1

[5] = tested on: MRSA ATCC BAA-41; assay: MIC determination in broth; format: cell-based, Staphylococcus aureus; details: cation-adjusted MH broth, 37°C, 16 h
Outline: as §1

[6] = tested on: MRSA ATCC BAA-2313; assay: MIC determination in broth; format: cell-based, Staphylococcus aureus; details: cation-adjusted MH broth, 37°C, 16 h
Outline: as §1

[7] = tested on: MRSA ATCC BAA-2094; assay: MIC determination in broth; format: cell-based, Staphylococcus aureus; details: cation-adjusted MH broth, 37°C, 16 h
Outline: as §1

[8] = tested on: MRSA ATCC 33592; assay: MIC determination in broth; format: cell-based, Staphylococcus aureus; details: cation-adjusted MH broth, 37°C, 16 h
Outline: as §1

[9] = target: SspA protease (Staphylococcus aureus, UniProt P0C1U8); assay: SspA protease treatment with HPLC/MS analysis; format: in vitro ADME; details: peptide 45 μL at 10 mg/mL + SspA 5 μL at 2 mg/mL, 100 mM HEPES pH 7.8, 37°C, 5 h
Chain of SspA protease (P0C1U8 69-336): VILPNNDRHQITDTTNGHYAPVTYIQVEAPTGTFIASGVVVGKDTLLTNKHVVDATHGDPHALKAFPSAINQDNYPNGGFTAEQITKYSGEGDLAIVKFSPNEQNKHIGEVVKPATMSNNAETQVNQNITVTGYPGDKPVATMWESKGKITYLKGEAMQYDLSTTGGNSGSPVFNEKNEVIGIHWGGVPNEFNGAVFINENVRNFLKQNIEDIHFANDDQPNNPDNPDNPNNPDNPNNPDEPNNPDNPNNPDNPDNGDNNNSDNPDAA
Procedure: SspA protease was resuspended at 2 mg/mL in 100 mM HEPES (pH 7.8). Peptide samples (45 μL at 10 mg/mL) were mixed with SspA (5 μL at 2 mg/mL) and incubated at 37°C for a total of 5 h. The antimicrobial activities of the reaction mixtures were assayed by spotting 5 μL (∼45 μg) of each on either M. luteus or S. aureus test organisms as described above. Additional samples were flash frozen in liquid nitrogen and stored at −80°C prior to high-pressure liquid chromatography-mass spectrometry (HPLC/MS) analysis.
HPLC/MS analyses were conducted to assess the proteolytic cleavage of STIPs by the SspA protease and catalogue peptides in the reaction mixtures. An Agilent Infinity II 1260 HPLC outfitted with a Phenomenex Lune C5 column (4.6 by 150 mm, 5 μm) was used to separate the peptide fragments using a binary solvent system consisting of solvent A (water, 0.05% formic acid) and solvent B (acetonitrile, 0.05% formic acid) operating at 0.7 mL/min. A 5-μL volume (∼4.5 μg) of each sample was injected at 10% solvent B, followed by a two-step gradient elution from 10% to 50% solvent B in 30 min, then 50% to 100% B in 10 min. The HPLC was coupled to an Advion CMS(L) single quadrupole mass detector through an electrospray ionization source, and ions were detected between 100 and 2,000 m/z. Low temperature and fragmentation settings were used: capillary temperature 135°C, capillary voltage 120 V, source voltage offset 20 V, source gas temperature 135°C, and electrospray ionization (ESI) voltage 3,500 V.

[10] = Circular dichroism spectroscopy; format: physicochemical; details: for α-Helical content (%): CD, 50% TFE (vol/vol), peptide 0.2 mg/mL, room temperature
Procedure: Peptides were dissolved in ultrapure water or 50% TFE (vol/vol) at a concentration of 0.2 mg/mL for spectroscopy. Spectra of samples in a 1 mm pathlength quartz cuvette were recorded from 180 to 260 nm at 0.5 nm steps using an Applied Photophysics Chirascan Plus CD spectrophotometer operating at room temperature.

[11] = tested on: sheep red blood cells; assay: Hemolytic activity assay; format: cell-based; details: peptides at 100 μg/mL, 1 h, relative to the δ-toxin and other STIPs
Procedure: Thirty-five percent defibrinated sheep’s blood (vol/vol) was centrifuged for 5 min at 4,000 rpm to harvest red blood cells. The cells were washed three times with PBS and harvested by centrifugation prior to dilution to 15% (vol/vol) in PBS in order to evaluate peptide-mediated hemolysis. The assay was performed in 96-well microtiter plates using peptides at 100 μg/mL in a 200-μL volume. […] was used as a negative control and Triton X-100 (0.1% vol/vol) was used as a positive control for complete lysis. After 1 h of incubation, the 96-well microtiter plates were centrifuged at 4,500 rpm for 10 min and a 150 μL aliquot of the supernatant from each sample was carefully transferred to a new 96-well plate. The absorbance of the supernatant was then measured at 540 nm using a Varioskan Lux plate reader (Thermo Scientific). The hemolytic activity is reported relative to complete lysis (%) obtained using Triton X-100. Experiments were performed in triplicate, and statistical differences in hemolysis were measured using an unpaired two-tailed Student’s t test to compare the STIPs and deformylated δ-toxin to the formylated δ-toxin.

[12] = tested on: S. aureus; assay: MIC of STIP3-1 alanine variants in liquid broth; format: cell-based, Staphylococcus aureus; details: Table S4; maximum concentration tested 200 μg/mL; strain not given
Procedure: The MICs were measured for bioactive peptides identified from the initial screen. […] […] Plates were incubated without shaking at 30 or 37°C depending on the organism.

[13] = tested on: M. luteus ATCC 4698; assay: MIC determination in broth; format: cell-based, Micrococcus luteus; details: cation-adjusted MH broth, ~10^5 CFU/mL, 30°C, 48 h
Procedure: M. luteus ATCC 4698, S. aureus ATCC 29213, a panel of 7 MRSA (ATCC MP-2) strains, which includes ATCC BAA-41, BAA-42, BAA-44, BAA-1683, BAA-2094, BAA-2313, and 33592, and a series of additional bacterial isolates from human and veterinary cases were used in this study (Table S6). Bacterial strains were routinely grown in lysogeny broth (LB: 10 g/L tryptone, 5 g/L yeast extract, 10 g/L NaCl) at 30°C (M. luteus) or 37°C (Staphylococcus spp.) prior to use in specific experiments described below.
The MICs were measured for bioactive peptides identified from the initial screen. Cation-adjusted Mueller-Hinton (MH) broth was used as the growth medium for MIC determination experiments. Bacterial cultures were diluted to an OD of 5 × 10^−4 (∼10^5 CFU/mL) in 200 μL MH broth mixed with peptides in a 2-fold dilution series arrayed in 96-well plates. Plates were incubated without shaking at 30 or 37°C depending on the organism.

[14] = tested on: HeLa (ATCC CCL-2) cells; assay: HeLa cytotoxicity, alamarBlue; format: cell-based, human; details: monolayers, 3.13 to 200 μg/mL, 24 h, alamarBlue fluorescence; estimated
Procedure: Cytotoxicity was measured using the 3D EpiDerm skin tissues and HeLa (ATCC CCL-2) cells using a fluorescent reporter of cell viability, alamarBlue (ThermoFisher Scientific). 3D EpiDerm skin tissues (MatTek EPI-200-AFAB) were transferred to a 12-well plate containing 600 μL of AFAB-assay medium supplemented with 10% vol/vol alamarBlue. […] HeLa cells were seeded in a 96-well plate at 2 × 10^4 cells/per well and incubated overnight at 37°C in a humidified 5% CO2 environment to prepare wells at ∼50% confluence for treatments after spent Dulbecco’s modified Eagle’s medium (DMEM) was removed and cells were washed with PBS. Assays were then performed using phenol red-free DMEM supplement with 9% vol/vol alamarBlue and peptide concentrations varying from 3.13 to 200 μg/mL. After a 24 h incubation period, alamarBlue fluorescence emission was measured at 590 nm upon excitation at 560 nm using Varioskan Lux plate reader (Thermo Scientific). Fluorescence intensities of treated cultures were normalized to measurement made for untreated control samples. Experimental data sets were fit to nonlinear dose-response curves to determine IC50 values using Origin 2019.

[15] = δ-toxins, highest conc. tested 200 μg/mL
[16] = STIP3 variants, highest conc. tested 100 μg/mL, ~10^5 CFU/mL, 2-fold dilution series

Compound | MIC, S. aureus ATCC BAA 1683 (SCCmec IV) [1, 15] | MIC, S. aureus ATCC 29213 [2, 15] | MIC, S. aureus ATCC BAA 44 (SCCmec I) [3, 15] | MIC, S. aureus ATCC BAA 42 (SCCmec VI) [4, 15] | MIC, S. aureus ATCC BAA 41 (SCCmec II) [5, 15] | MIC, S. aureus ATCC BAA 2313 (SCCmec XI) [6, 15] | MIC, S. aureus ATCC BAA 2094 (SCCmec V) [7, 15] | MIC, S. aureus ATCC 33592 (SCCmec III) [8, 15] | Susceptibility to SspA cleavage [9] | α-Helical content (%) [10] [%] | other results
CC[C@H](C)[C@H](NC(=O)[C@H](Cc1c[nH]c2ccccc12)NC(=O)[C@H](CCCCN)NC(=O)[C@@H](NC(=O)[C@H](CC(C)C)NC(=O)CNC(=O)CNC(=O)[C@@H](NC(=O)[C@@H](NC(=O)[C@H](CCC(=O)O)NC(=O)[C@@H](NC(=O)[C@@H](NC(=O)[C@H](CC(=O)O)NC(=O)[C@H](CCCCN)NC(=O)[C@@H](NC(=O)[C@H](CCSC)NC=O)[C@@H](C)O)[C@@H](C)CC)C(C)C)[C@@H](C)O)C(C)C)C(C)C)C(=O)N[C@@H](CC(C)C)C(=O)N[C@@H](CC(=O)O)C(=O)N[C@H](C(=O)N[C@H](C(=O)N[C@@H](CCCCN)C(=O)N[C@@H](CCCCN)C(=O)N[C@@H](Cc1ccccc1)C(=O)N[C@@H](C)C(=O)O)C(C)C)[C@@H](C)O [δ-toxin] (For-MTKDIVETVGGLVKWILDTVKKFA-OH; C-terminus assumed) | > (no inhibition was observed at 100 μg/mL for the STIP3 variants or 200 μg/mL for the δ-toxins) | > (no inhibition was observed at 100 μg/mL for the STIP3 variants or 200 μg/mL for the δ-toxins) | > (no inhibition was observed at 100 μg/mL for the STIP3 variants or 200 μg/mL for the δ-toxins) | > (no inhibition was observed at 100 μg/mL for the STIP3 variants or 200 μg/mL for the δ-toxins) | > (no inhibition was observed at 100 μg/mL for the STIP3 variants or 200 μg/mL for the δ-toxins) | > (no inhibition was observed at 100 μg/mL for the STIP3 variants or 200 μg/mL for the δ-toxins) | > (no inhibition was observed at 100 μg/mL for the STIP3 variants or 200 μg/mL for the δ-toxins) | > (no inhibition was observed at 100 μg/mL for the STIP3 variants or 200 μg/mL for the δ-toxins) | no SspA cleavage was observed | 88 | Secondary structure by CD ([10]; water and 50% trifluoroethanol (vol/vol), 0.2 mg/mL): α-helical in both solvents
MTKDIVETVGGLVKWILDTVKKFA [δ-toxin (df), deformylated full-length S. auricularis δ-toxin, reference compound] | > (no inhibition was observed at 100 μg/mL for the STIP3 variants or 200 μg/mL for the δ-toxins) | > (no inhibition was observed at 100 μg/mL for the STIP3 variants or 200 μg/mL for the δ-toxins) | > (no inhibition was observed at 100 μg/mL for the STIP3 variants or 200 μg/mL for the δ-toxins) | > (no inhibition was observed at 100 μg/mL for the STIP3 variants or 200 μg/mL for the δ-toxins) | > (no inhibition was observed at 100 μg/mL for the STIP3 variants or 200 μg/mL for the δ-toxins) | > (no inhibition was observed at 100 μg/mL for the STIP3 variants or 200 μg/mL for the δ-toxins) | > (no inhibition was observed at 100 μg/mL for the STIP3 variants or 200 μg/mL for the δ-toxins) | > (no inhibition was observed at 100 μg/mL for the STIP3 variants or 200 μg/mL for the δ-toxins) | susceptible to SspA cleavage | 87 | –
TVGGLVKWILATVKKFA-NH2 [STIP3-28, rationally designed STIP3-1 variant, C-terminal amide] | – | – | – | – | – | – | – | – | – | – | MIC, S. aureus ATCC BAA 1683 (SCCmec IV) [1, 16]: 12.5 µg/mL; MIC, S. aureus ATCC 29213 [2, 16]: 25 µg/mL; MIC, S. aureus ATCC BAA 44 (SCCmec I) [3, 16]: 12.5 µg/mL; MIC, S. aureus ATCC BAA 42 (SCCmec VI) [4, 16]: 12.5 µg/mL; MIC, S. aureus ATCC BAA 41 (SCCmec II) [5, 16]: 12.5 µg/mL; MIC, S. aureus ATCC BAA 2313 (SCCmec XI) [6, 16]: 12.5 µg/mL; MIC, S. aureus ATCC BAA 2094 (SCCmec V) [7, 16]: 6.25 µg/mL; MIC, S. aureus ATCC 33592 (SCCmec III) ([8]; Table S5, STIP3 variants, highest conc. tested 100 μg/mL, ~10^5 CFU/mL, 2-fold dilution series): 6.25 µg/mL; Change of hemolytic activity [11]: increase in hemolysis
TVGGLVKWILDTVKKFA [STIP3-1] | – | – | – | – | – | – | – | – | further proteolysis can occur | – | MIC (μg/mL) for MRSA ATCC 33592 ([8]; Table 1 and text, ~10^5 CFU/mL): 100 µg/mL; MIC, S. aureus (alanine substituted STIP3-1, liquid broth) [12]: 100 µg/mL; MIC, M. luteus [13]: 12.5 µg/mL; IC50, HeLa cell survival [14]: 200 ± 30 µg/mL
